Source: US12377069B2, “Compounds, compositions, methods of using, and methods for preparing compounds” (UNIVERSITY OF LOUISVILLE RESEARCH FOUNDATION, INC., priority 2018, dated 2025)

Key:
Cyp1A1 [1] = test: Cyp1A1 expression and enzyme activity in vitro (P450-Glo, EROD); assay type: cell-based, human; settings: for Cyp1A1 enzyme activity in colon epithelial cells: HT29, 24 h, P450-Glo and EROD
Method: Measurment of Cyp1A1 enzyme activities in vitro. EROD assay: HT-29 cells (15,000 cells/well) treated with vehicle, UroA and UAS03 (24 hrs), were rinsed with HBSS buffer, and then fresh HBSS buffer was added along with 5 μM of 7-ethoxyresorufin. Cells were further incubated at 37° C. for 1 h. After the incubation time, fluorescence (Exc. 530 nm, Em. 580 nm) was measured and product (resorufin) formed was calculated from calibration standard and normalized with protein concentration.
P450-Glo Cyp1A1 luminiscence assay: HT29 cells (25,000 cells/well) were plated in 48 well plate. Cell were then treated with UroA (0.1, 1, 10, 25 and 50 μM) or UAS03 (0.1, 1, 10, 25 and 50 μM) or FICZ (0.1, 1, 10, 25 and 50 nM) for 24 hrs. After treatment, cells were washed to remove any residual drugs, and fresh medium containing Cyp1A1 substrate (as per protocol provided with kit Cat. #V8751; Promega) for 3 hr. After incubation, 25 μl of culture medium was removed from each well and transferred to a 96-well white opaque plate and 25 μl of luciferin detection reagent was added to initiate the luminescence reaction and plate was incubated at room temperature for 20 min. After incubation, luminescence was recorded in luminometer. The data reported as fold change over vehicle treatment.

Cyp1A1 [2] = test: Cyp1A1 enzyme activity in colon and liver microsomes of treated mice; assay type: in vivo, mouse; settings: 1 week; for Cyp1A1 activity in colon tissues compared to BNF and FICZ treated mice: UroA/UAS03 oral 20 mg/kg/day, FICZ i.p.; for Cyp1A1 activity increase in colons: i.p., UroA/UAS03 5 mg/kg/day, FICZ 1 μg/mouse/day; for Cyp1A1 activity in colon and liver, AhR^−/− mice / Cyp1A1 activity in colon and liver, wild type mice: oral 20 mg/kg, EROD
Method: Measurements of Cyp1A1 enzyme activity (Ex vivo): Mice were treated with Vehicle or UroA or UAS03, BNF or FICZ daily for one week at indicated concentration either through oral or i.p. route. After one week, mice were euthanized and the colon and liver tissues were dissected. Microsomes from these tissues were prepared using the following procedure (SINGH et al., (2013) “Evaluation of memory enhancing clinically available standardized extract of Bacopa monniera on P-glycoprotein and cytochrome P450 3A in Sprague-Dawley rats” PloS one, Vol. 8, Article e72517). For hepatic microsomes, liver was first perfused with 0.9% sodium chloride solution and excised out. Adhering blood and saline was removed by blotting on tissue paper and tissue was homogenized in tissue homogenization buffer (50 mM Tris-HCl, pH 7.4 with 250 mM sucrose). Homogenate was centrifuged at 10,000×g for 30 minutes at 4° C. supernatant obtained was further centrifuged at 105,000×g for 60 minutes at 4° C. The pellet was washed with homogenization buffer and centrifuged again at 105,000×g for 60 minutes at 4° C. The pellet was suspended in homogenization buffer and used for protein and CYP assay. For intestinal microsome preparation, intestine was removed and washed with 0.9% sodium chloride. The intestine was longitudinally cut open to expose mucosal layer and mucosa was scrapped with help of glass slide. The scraped tissue was collected in homogenization buffer (50 mM Tris-HCl buffer containing glycerol (20% v/v), protease inhibitor (1%) and heparin (3 U/ml)). This suspended mucosa was homogenized and centrifuged at 10,000×g for 20 minutes at 4° C. Supernatant obtained was further centrifuged at 105,000×g for 60 minutes at 4° C. The pellet was washed with buffer and centrifuged again at 105,000×g for 60 minutes at 4° C. The pellet was suspended homogenization buffer and used for protein and CYP enzymes assays.
Ethoxyresorufin-O-deethylase (EROD) assay: The microsomal proteins (0.5 mg) were mixed with 200 μL Tris buffer (0.1 M, pH 7.4) containing ethoxyresorufin (0.01 mM). To start reaction, NADPH (0.1 mM) was added and incubated at 37° C. for 10 min. After 10 min, reaction was terminated by adding equal volume of acetonitrile and reaction mixture was centrifuged at 13000×g for 10 min at 4° C. Supernatant was used to determine resorufin by measuring fluorescence (Ex. 530 nm, Em. 580 nm). Pure resorufin (Sigma Aldrich) was used to generate standard curve.
P450-Glo Cyp1A1 luminiscence assay: The above microsomes (20 μg) were used for P450-Glo Cyp1A1 luminiscence assays as per manufacturer's instructions.

C57BL/6 mice = test: In vivo Evans Blue permeability assay (LPS); parameters: species or system mouse; settings: LPS 100 μg i.p.; for LPS-induced TNF-α levels in serum and BAL fluid: 20 mg/kg; for tissue accumulation of Evans Blue (lung and liver): 20 mg/kg after 1 h and 18 h
Method: Acute intoxication of alcohol can induce microvasculature leakage as well as direct exposure to endothelium leads to disruption of endothelial integrity. […] In addition, increased endothelial permeability enhances the extravasation of immune cells into liver leading to increased inflammation. To examine the effect of UroA/UAS03 on endothelial cell permeability, we utilized in vivo Evans Blue permeability assay. Briefly, C57BL/6 mice (n=4/group) were given LPS (100 μg) i.p. followed by treatment with UAS03 or UroA (20 mg/kg) after 1 h and 18 h. Evans blue (i.v.) was given to mice (24 h post LPS treatment) and 30 min later mice were euthanized and the Evans Blue from lung and liver tissues was extracted using formamide. The levels of Evans Blue was determined by OD at 620 nm. […] To evaluate direct impact of UroA or UAS03 on endothelial barrier function, we used in vivo Miles assay to test blood vessel permeability. We used vascular endothelial growth factor (VEGF) as vasodilator. In this assay, C57BL/6 mice (n=3 per group) were given vehicle or UroA or UAS03 (20 mg/kg; oral gavage). After 3 h, Evans blue (100 μL of 1% solution) was administered i.v. followed by intra-dermal administration of VEGF (2.5 ng/mouse) or PBS (control). After 30 min, mice were euthanized and the levels of Evans Blue in skin tissue surrounding the injection site was extracted and estimated as described previously (FIG. 36C). […] To understand molecular mechanisms of UroA/UAS03 mediated endothelial barrier function, we tested the effects of these compounds in Human Umbilical Vein Endothelial Cells (HUVECs). Endotoxins or inflammatory mediators are responsible for decreasing the cell-cell and cell-matrix adhesion leading to increased barrier gaps and permeability. The VE-Cadherin (CDH5), an adherins junction (AJ) protein, can maintain the integrity of endothelial junctions through homotypic interactions with adjacent cell.

Compound | Cyp1A1 enzyme activity in colon epithelial cells (Cyp1A1 [1]) | Cyp1A1 activity in colon tissues compared to BNF and FICZ treated mice (Cyp1A1 [2]) | Cyp1A1 activity increase in colons (Cyp1A1 [2]) [fold] | Cyp1A1 activity in colon and liver, AhR^−/− mice (Cyp1A1 [2]) | Cyp1A1 activity in colon and liver, wild type mice (Cyp1A1 [2]) | LPS-induced TNF-α levels in serum and BAL fluid (C57BL/6 mice) | tissue accumulation of Evans Blue (lung and liver) (C57BL/6 mice) | Cyp1A1 expression (RNA-Seq and real time PCR) (Cyp1A1 [1]; HT29, 50 μM, 24 h)
Oc1ccc2c(c1)COc1cc(O)ccc1-2 [UAS03, 6H-benzo[c]chromene-3,8-diol] | induced Cyp1A1 activity | relatively more Cyp1A1 activity in colon tissues | ~3 | but not in AhR^−/− mice | activated Cyp1A1 activity | reduced LPS-induced TNF-α levels | reduced tissue accumulation of Evans Blue | 
O=c1oc2cc(O)ccc2c2ccc(O)cc12 [UroA, 3,8-dihydroxy-6H-dibenzo[b,d]pyran-6-one] | induced Cyp1A1 activity | relatively more Cyp1A1 activity in colon tissues | ~3 | but not in AhR^−/− mice | activated Cyp1A1 activity | reduced LPS-induced TNF-α levels | reduced tissue accumulation of Evans Blue | upregulated
